Test results: publication PMC11062899, “De novo development of small cyclic peptides that are orally bioavailable” (Nature Chemical Biology, 2023)
Where “and” joins values, the source holds several entries; their conditions need not be identical. Identical values can stand only once. Like-named read-outs stand apart in the source and are kept apart here.

Columns and labels:
[1] = target: T1, porcine pepsin (Sus scrofa, UniProt P00791); test: Peptide stability in simulated gastric fluid (SGF); assay type: in vitro ADME
T1 construct: 0.32 g of porcine pepsin (Sigma-Aldrich, P7125) was dissolved under gentle agitation; purchased Sigma-Aldrich P7125
Outline: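 Peptide from a 1 mM DMSO stock was added to fluid pre-warmed at 37 °C. SGF was pH 1.2 NaCl with porcine pepsin (0.32 g per 100 ml), and SIF was pH 6.8 potassium phosphate with porcine pancreatin (1 g per 100 ml). Supernatant peptide was quantified by LC–MS, with residual expressed as T1/T0.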

[2] = target: T2, rat α-thrombin (Rattus norvegicus, UniProt P18292); test: Protease inhibition, Ki for rat α-thrombin (fluorogenic substrate Z-Gly-Gly-Arg-AMC); assay type: biochemical; details: for Slope normalized to DMSO (proteolytic substrate cleavage over time) / Rat alpha thrombin inhibition, slope normalized to DMSO: replicates R1-R3
T2 construct: rat α-thrombin (Molecular Innovations) were used at final concentrations of 2 nM and 3 nM; purchased Molecular Innovations
Outline: (§1)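 Ki derived through Cheng–Prusoff from IC50s (four-parameter logistic fit) against activity of peptide-free controls. Product fluorescence was read every 3 min over 30 min at 25 °C, substrate Z-Gly-Gly-Arg-AMC at 50 μM. Enzyme was 2 nM human or 3 nM rat α-thrombin, pH 7.4 buffer.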

[3] = Passive artificial membrane permeability (PAMPA)
[4] = Metabolic stability in rat liver microsomes (RLMs); details: rat, microsomes
[5] = target: human α-thrombin (Homo sapiens, UniProt P00734); test: Protease inhibition, Ki for human α-thrombin (fluorogenic substrate Z-Gly-Gly-Arg-AMC); assay type: biochemical; details: for Human alpha thrombin inhibition, slope normalized to DMSO: replicates R1-R3
Outline: as §1

[6] = peptide 1.33E+02 uM, slope of proteolytic substrate cleavage over time

T1 sequence (P00791 60-385): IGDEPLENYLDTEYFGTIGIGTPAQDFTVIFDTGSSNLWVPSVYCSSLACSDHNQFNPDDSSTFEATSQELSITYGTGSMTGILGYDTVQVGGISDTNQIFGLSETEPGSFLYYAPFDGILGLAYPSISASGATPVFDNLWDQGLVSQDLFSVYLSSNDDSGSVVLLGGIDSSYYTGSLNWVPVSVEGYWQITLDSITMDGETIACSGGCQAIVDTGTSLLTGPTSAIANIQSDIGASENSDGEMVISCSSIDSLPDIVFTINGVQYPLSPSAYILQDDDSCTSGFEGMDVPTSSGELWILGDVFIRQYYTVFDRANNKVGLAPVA

SGF stability, Residual peptide Average ([1]; after 8 h vs 0 h (TIC), average of R1-R3): 95.02 | SGF stability, Residual peptide ([1]; after 8 h vs 0 h (TIC), single replicates R1-R3): 100.52 and 97.58 and 86.97 | remaining at 8 h ([1]; pig, simulated gi fluid, 8 h, 37 °C, pH 1.2, read-out: Proteolytic stability: SGF (8 h) % remaining): 95 ± 7% | Ki ([2]; average of R1-R3, read-out: Ki Average): 357 nM | Slope normalized to DMSO (proteolytic substrate cleavage over time) ([2]; peptide 1.02E-03 uM): 100.5 and 96.1 and 105.7 | Slope normalized to DMSO (proteolytic substrate cleavage over time) ([2]; peptide 1.04E+00 uM): 47.3 and 45.5 and 46.2 | Slope normalized to DMSO (proteolytic substrate cleavage over time) ([2]; peptide 1.27E-04 uM): 98.2 and 95.5 and 104.0 | Slope normalized to DMSO (proteolytic substrate cleavage over time) ([2]; peptide 1.30E-01 uM): 88.1 and 88.0 and 95.1 | Rat alpha thrombin inhibition, slope normalized to DMSO [2, 6]: 29.3 and 31.0 and 24.5 | Slope normalized to DMSO (proteolytic substrate cleavage over time) ([2]; peptide 1.63E-02 uM): 95.3 and 90.7 and 94.2 | Rat alpha thrombin inhibition, slope normalized to DMSO ([2]; peptide 1.67E+01 uM): 11.1 and 9.5 and 16.8 | Slope normalized to DMSO (proteolytic substrate cleavage over time) ([2]; peptide 2.03E-03 uM): 96.6 and 95.4 and 92.0 | Rat alpha thrombin inhibition, slope normalized to DMSO ([2]; peptide 2.08E+00 uM): 34.7 and 33.7 and 44.2 | Slope normalized to DMSO (proteolytic substrate cleavage over time) ([2]; peptide 2.54E-04 uM): 95.8 (2×) and 100.3 | Slope normalized to DMSO (proteolytic substrate cleavage over time) ([2]; peptide 2.60E-01 uM): 75.1 and 76.7 and 74.0 | Slope normalized to DMSO (proteolytic substrate cleavage over time) ([2]; peptide 3.18E-05 uM): 100.9 and 96.6 and 106.2 | Slope normalized to DMSO (proteolytic substrate cleavage over time) ([2]; peptide 3.26E-02 uM): 100.1 and 92.2 and 91.8 | Rat alpha thrombin inhibition, slope normalized to DMSO ([2]; peptide 3.33E+01 uM): 8.8 and 9.0 and 13.6 | Slope normalized to DMSO (proteolytic substrate cleavage over time) ([2]; peptide 4.07E-03 uM): 100.3 and 98.9 and 95.8 | Rat alpha thrombin inhibition, slope normalized to DMSO ([2]; peptide 4.17E+00 uM): 29.3 and 26.2 and 29.7 | Slope normalized to DMSO (proteolytic substrate cleavage over time) ([2]; peptide 5.09E-04 uM): 99.8 and 96.7 and 105.4 | Slope normalized to DMSO (proteolytic substrate cleavage over time) ([2]; peptide 5.21E-01 uM): 62.1 and 60.1 and 59.5 | Slope normalized to DMSO (proteolytic substrate cleavage over time) ([2]; peptide 6.36E-05 uM): 99.5 and 99.0 and 105.5 | Slope normalized to DMSO (proteolytic substrate cleavage over time) ([2]; peptide 6.51E-02 uM): 92.1 and 90.2 and 94.2 | Rat alpha thrombin inhibition, slope normalized to DMSO ([2]; peptide 6.67E+01 uM): 22.0 and 23.9 and 12.4 | Slope normalized to DMSO (proteolytic substrate cleavage over time) ([2]; peptide 8.14E-03 uM): 88.9 and 94.1 and 99.5 | Rat alpha thrombin inhibition, slope normalized to DMSO ([2]; peptide 8.33E+00 uM): 16.6 and 15.4 and 23.2 | IC50 ([2]; single replicates R1-R3, read-out: IC50): 640 nM and 631 nM and 666 nM | Ki ([2]; single replicates R1-R3, read-out: Ki): 354 nM and 349 nM and 368 nM | PAMPA permeability: % permeability ([3]; 50 μM, 12–18 h, acceptor concentration relative to equilibrium): 1.27 ± 0.67% | Papp at 50 μM ([3]; PAMPA, pH 7.4): 0.0776 ×10⁻⁶ cm/s | Permeability% Average ([3]; PAMPA, average of R1-R3): 1.3% | Permeability% R1 ([3]; PAMPA, replicate R1, TIC of top well sample relative to sample at theoretical equilibrium): 2.04% | Permeability% R3 ([3]; PAMPA, replicate R3, TIC of top well sample relative to sample at theoretical equilibrium): 1.01% | microsomal CLint ([4]; CL (ul/min/mg protein) R1, RLM CL, replicate R1): 78.3 µL/min/mg | microsomal CLint ([4]; CL (ul/min/mg protein) R2, RLM CL, replicate R2): 132 µL/min/mg | microsomal CLint ([4]; CL (ul/min/mg protein) R3, RLM CL, replicate R3): 141 µL/min/mg | half-life ([4]; Half Life (min) R1, RLM metabolic stability, replicate R1, 0-60 min): 17.7 min | half-life ([4]; Half Life (min) R2, RLM metabolic stability, replicate R2, 0-60 min): 10.5 min | half-life ([4]; Half Life (min) R3, RLM metabolic stability, replicate R3, 0-60 min): 9.82 min | microsomal CLint ([4]; Metabolic stability: RLM CL (ul/min/mg), RLMs, mean and SD, three measurements): 117 ± 28 µL/min/mg | microsomal CLint ([4]; Metabolic stability: RLM CL R1, summary table, rounded, replicate R1): 78.3 µL/min/mg | microsomal CLint ([4]; Metabolic stability: RLM CL R2, summary table, rounded, replicate R2): 132 µL/min/mg | microsomal CLint ([4]; Metabolic stability: RLM CL R3, summary table, rounded, replicate R3): 141 µL/min/mg | half-life ([4]; pH 7.4, Metabolic stability: Half life T1/2 (min), RLMs, mean and SD, three measurements): 12.7 ± 3.6 min | microsomal CLint ([4]; pH 7.4, Metabolic stability: RLM CL Average, summary table, average of R1-R3): 117 µL/min/mg | IC50 ([5]; human alpha thrombin, individual replicates R1-R3, read-out: IC50): 1240 nM and 961 nM and 880 nM | Ki ([5]; human alpha thrombin, individual replicates R1-R3, read-out: Ki): 952 nM and 740 nM and 678 nM | Ki ([5]; human alpha thrombin, average of R1-R3, read-out: Ki Average): 790 nM | Human alpha thrombin inhibition, slope normalized to DMSO ([5]; peptide 1.02E-03 uM): 99.6 and 102.5 and 100.4 | Human alpha thrombin inhibition, slope normalized to DMSO ([5]; peptide 1.04E+00 uM): 62.7 and 63.2 and 64.7 | Human alpha thrombin inhibition, slope normalized to DMSO ([5]; peptide 1.27E-04 uM): 101.4 and 100.0 and 103.5 | Human alpha thrombin inhibition, slope normalized to DMSO ([5]; peptide 1.30E-01 uM): 93.3 and 94.2 and 91.8 | Human alpha thrombin inhibition, slope normalized to DMSO [5, 6]: 35.6 and 42.1 and 48.0 | Human alpha thrombin inhibition, slope normalized to DMSO ([5]; peptide 1.63E-02 uM): 100.3 and 97.9 and 93.0 | Human alpha thrombin inhibition, slope normalized to DMSO ([5]; peptide 1.67E+01 uM): 19.0 and 23.6 and 27.7 | Human alpha thrombin inhibition, slope normalized to DMSO ([5]; peptide 2.03E-03 uM): 98.3 and 97.0 and 102.8 | Human alpha thrombin inhibition, slope normalized to DMSO ([5]; peptide 2.08E+00 uM): 53.1 and 49.4 and 51.7 | Human alpha thrombin inhibition, slope normalized to DMSO ([5]; peptide 2.54E-04 uM): 100.9 and 99.7 | Human alpha thrombin inhibition, slope normalized to DMSO ([5]; peptide 2.60E-01 uM): 86.0 and 78.5 and 87.5 | Human alpha thrombin inhibition, slope normalized to DMSO ([5]; peptide 3.18E-05 uM): 105.6 and 95.1 and 100.8 | Human alpha thrombin inhibition, slope normalized to DMSO ([5]; peptide 3.26E-02 uM): 99.1 and 97.3 and 99.5 | Human alpha thrombin inhibition, slope normalized to DMSO ([5]; peptide 3.33E+01 uM): 14.9 and 14.8 and 17.4 | Human alpha thrombin inhibition, slope normalized to DMSO ([5]; peptide 4.07E-03 uM): 104.1 and 99.4 and 102.2 | Human alpha thrombin inhibition, slope normalized to DMSO ([5]; peptide 4.17E+00 uM): 44.0 and 45.0 and 45.3 | Human alpha thrombin inhibition, slope normalized to DMSO ([5]; peptide 5.09E-04 uM): 89.0 and 97.2 and 100.9 | Human alpha thrombin inhibition, slope normalized to DMSO ([5]; peptide 5.21E-01 uM): 80.8 and 75.1 and 78.9 | Human alpha thrombin inhibition, slope normalized to DMSO ([5]; peptide 6.36E-05 uM): 99.9 and 99.1 and 102.2 | Human alpha thrombin inhibition, slope normalized to DMSO ([5]; peptide 6.51E-02 uM): 97.0 and 92.8 and 96.0 | Human alpha thrombin inhibition, slope normalized to DMSO ([5]; peptide 6.67E+01 uM): 27.9 and 32.4 and 47.7 | Human alpha thrombin inhibition, slope normalized to DMSO ([5]; peptide 8.14E-03 uM): 99.8 and 97.9 and 99.0 | Human alpha thrombin inhibition, slope normalized to DMSO ([5]; peptide 8.33E+00 uM): 29.9 and 28.6 and 29.1
SMILES: CN1CCC(=O)NCCSCCS(=O)(=O)CCSC[C@H](NC(=O)c2ccc(Cl)s2)C(=O)N[C@@H](Cc2ccccc2)C1=O [compound 14]
